Assay: T1 measurements / MR imaging of PA gels at 9.4 T
Assay type: physicochemical
Conditions: gel of 0.75 wt. % filler PA 1, agent mixed in at 0.1 mM Gd(III) (1 alone without Gd(III)), spin-echo
Experimental: FIG. 4 depicts results of T1 study of PA gels and mixed PA gels. The concentration of Gd(III) is 0.1 mM in all samples except a and the concentration of filler PA is […] in each case (all samples form self-supporting gels): a corresponds to compound 1 alone and is used as a standard, b refers to 1 mixed with DTPA, c refers to 1 mixed with compound 2, d refers to 1 mixed with compound 3, e through j are mixed with compound 3 and their structures are depicted above. Error bars represent one standard deviation.
Mixing PACAs 2 or 3 with filler PA 1 could be successfully imaged by MR (FIG. 3). The gels are homogeneous in image intensity throughout the samples, which implies uniform mixing of the PACA molecules within the filler PA at MR resolution. If heterogeneous mixing of PAs occur on a large enough scale, domains of bright and dark intensity would be observed. […] The gels were made using a 0.75 wt. % of filler PA. The PACA molecule was mixed into this solution before gelling as was the DTPA. Images were acquired using a spin-echo pulse sequence with TR 750 ms, TC 12 ms, slice thickness of 1 mm, FOV of 2 cm, at 9.4 T on an Oxford superconducting magnet and Bruker software. The T1 of these gels were measured at 3.03±0.05 s, 1.89±0.06 s, 1.08±0.06 s, and 2.81±0.05 s, respectively, the faster T1's resulting in higher contrast.
T1 Measurements. […]

O=C(O)CN(CCN(CC(=O)O)CC(=O)O)CCN(CC(=O)O)CC(=O)O [DTPA, diethylenetriaminepentaacetate]
T1 of gels: 2.81 ± 0.05 s

Reference: patent publication US8834840B1, “Magnetic resonance imaging of self-assembled biomaterial scaffolds” (Northwestern University, priority 2006, dated 2014)
